Laboratory results taken from patent US20180078525A1, “COMPOSITION FOR GROWTH PROMOTION, CONTAINING COUMARIC ACID AS ACTIVE INGREDIENT” (KOREA MEDICINE RESEARCH INSTITUTE, INC, priority 2014, published 2018).

Key:
[1] = tested on: Sprague-Dawley rats; assay: Total tibial length by X-ray radiography; format: in vivo, rat; conditions: after 10-day administration, coumaric acid 100 mg/kg oral, growth hormone 20 μg/kg s.c.
Procedure: (§1) In a control group, saline was injected. […] The drug administered to each group is as follows:
To assess the effect of coumaric acid on growth promotion, total tibial length of rats were measured. In Experimental Example <1-1>, after the 10-day administration was completed, right and left tibias (shinbones) were extracted from the control groups and the coumaric acid-fed experimental group according to this invention, all the muscles, fat and ligaments attached to bone tissue were removed, and then the resulting specimen was stored in 70% alcohol, followed by radiographic analysis using an X-ray imaging instrument (OM-FORTE-10121, DK Medical Systems). For the analysis, 55 kV, […] X-ray sources were used. The total tibial length was measured by X-ray radiography.

[2] = tested on: Sprague-Dawley rats; assay: Analysis of growth plate (heights of proliferative and hypertrophic zones); format: in vivo, rat; conditions: after 10-day administration; for height of the proliferative zone of the growth plate: average, control group 0.77 mm; for height of the hypertrophic zone of the growth plate: control group 1.10 mm
Procedure: In a control group, saline was injected. […] To assess the growth effect of coumaric acid, the growth plate of each rat was analyzed. In Experimental Example <1-1>, after the 10-day administration was completed, right and left tibias (shinbones) were extracted from the experimental group and the control groups according to this invention, all the muscles, fat and ligaments attached to bone tissue were removed, and then the resulting specimen was stored in 70% alcohol, demineralized, and then dehydrated. Afterward, the resulting specimen was washed with xylene, and then put into a paraffin block. Subsequently, the specimen was cut to a thickness of 4 μm, and then the heights of the proliferative zone and the hypertrophic zone in the growth plate were measured using a BX50 microscope (Olympus).

[3] = tested on: cartilage cells; assay: Proliferation of cartilage cells in proximal tibia (BrdU staining); format: in vivo, rat; conditions: rats, after 10-day administration, BrdU 30 mg/kg i.p., 2 hours before autopsy; control group 0.13%
Procedure: as §1
To confirm whether the effect of coumaric acid on bone growth is caused by the proliferation of cartilage cells, cartilage cells were observed. In Experimental Example <1-1>, after the 10-day administration was completed, rats of the experimental group and the control groups according to this invention were intraperitoneally administered with a dose of 30 mg/kg of 5-bromo-2′-deoxyuridine (BrdU) on the day of the experiment. Two hours later, autopsies were carried out to extract legs, and then the legs were stored in 4% PFA for 24 hours. Following embedding and sectioning, cartilage cells which were stained using a BrdU staining kit (Invitrogen, Carlsbad, Calif., USA) were observed.

[4] = tested on: growth hormone; assay: Growth hormone levels in blood (Growth Hormone Rat ELISA Kit); format: in vivo; conditions: rat serum, after 10-day administration; control group 3.97 ng/ml
Procedure: as §1
To confirm whether coumaric acid affects the secretion level of the growth hormone, a growth hormone level in the blood of each rat was measured. […] The measurement of the growth hormone levels were carried out using a Growth Hormone Rat ELISA Kit (Life Technologies, KRC5311).

[5] = tested on: IGF-1; assay: IGF-1 protein levels in blood (IGF1 ELISA Kit); format: in vivo; conditions: rat serum, after 10-day administration; control group 0.84 mg/kg
Procedure: as §1
To confirm whether coumaric acid affects the secretion levels of IGF-1, […], IGF-1 protein levels were measured. In Experimental Example <1-1>, after the 10-day administration was completed, the rats of the experimental group and the control groups according to this invention were anesthetized on the day of the experiment, and then blood was extracted therefrom using a syringe and centrifuged to obtain serum. The measurement of the IGF-1 levels was carried out using an IGF1 ELISA Kit (Abcam, ab100695).

[6] = Changes in the body weight of laboratory animals; conditions: male Sprague-Dawley rats, 10-day administration; coumaric acid 100 mg/kg oral, growth hormone 20 μg/kg s.c., once daily
Procedure: Three-week-old male Sprague-Dawley rats were purchased and acclimated for three days. A breeding environment was altered to a 24-hour pattern, a light/dark cycle was maintained at 12-hour intervals, and antibiotic-free normal solid feed was used. In a control group, saline was injected. In a positive control group, Eutropin Injection (LG Bioscience Korea) was subcutaneously injected at a dose of 20 μg/kg once a day. The coumaric acid of this invention was administered to the oral cavity of all rats of a coumaric acid group, once daily.
After feeding and administering the coumaric acid to the rats for 10 days, autopsies were carried out to confirm the following content.
The measurement was carried out twice a week. The measured values were statistically analyzed to calculate mean±standard deviation.

Row | Molecule | total tibial length vs control group [1] | height of the proliferative zone of the growth plate [2] | height of the hypertrophic zone of the growth plate [2] | ratio of BrdU-labeled cells with respect to total cells [3] | growth hormone level in blood [4] | IGF-1 protein level [5] | body weight vs control group [6]
1 | growth hormone: positive control: Eutropin Injection (LG Bioscience Korea), growth hormone, subcutaneously injected at 20 μg/kg once a day | greater than the control group | 1.13 mm | 1.44 mm | 0.18% | 11.89 ng/mL | 1.31 mg/kg | –
2 | O=C(O)/C=C/c1ccc(O)cc1 [coumaric acid] | – | 0.98 mm | 1.27 mm | 0.18% | 7.62 ng/mL | 1.23 mg/kg | almost no difference
